Values quoted from earlier work, collected in patent US20120171239A1, “Immunogenic Conjugates for Producing Immune Responses to Drugs of Abuse and Methods of Use” (priority 2009, published 2012).

System: D2
Conditions: i.v. injection of 1.0 mg/kg cocaine, PET

SMILES: COC(=O)[C@H]1[C@@H](OC(=O)c2ccccc2)C[C@@H]2CC[C@H]1N2C [cocaine]
- reduction of FCP uptake: ≤ 40%
